Measured values reported in patent US10092570B2 (Incyte Corporation, priority 2011, dated 2018).

Legend:
PI3Kδ (p110δ/p85α) = PI3Kδ (p110δ/p85α) (Homo sapiens (Human), UniProt O00329); experiment: Example A3: PI3Kδ scintillation proximity assay; format: biochemical; conditions: scintillation proximity assay, 20 μM ATP, 4 nM PI3Kδ; read-out: PI3Kδ SPA IC50
Outline: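 p110δ/p85α (4 nM) phosphorylated 20 μM PIP2 with 20 μM ATP plus [γ-33P]ATP in MOPS pH 6.7, MgCl2, DTT, CHAPS, 0.5% DMSO, at RT. Stopped with EDTA/excess ATP, product captured on WGA SPA beads overnight and counted; IC50 from percent control activity versus log inhibitor.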

[1] = tested on: Pfeiffer cell line (diffuse large B cell lymphoma); experiment: Example B2: Pfeiffer cell proliferation assay; format: cell-based; conditions: Homo sapiens, Pfeiffer, Pfeiffer cells, [3H]-thymidine incorporation
Procedure: Pfeiffer cell line (diffuse large B cell lymphoma) are purchased from ATCC (Manassas, Va.) and maintained in the culture medium recommended (RPMI and 10% FBS). To measure the anti-proliferation activity of the compounds, the Pfeiffer cells are plated with the culture medium (2×10^3 cells/well/per 200 μl) into 96-well ultra-low binding plates (Corning, Corning, N.Y.), in the presence or absence of a concentration range of test compounds. After 3-4 days, [^3H]-thymidine (1 μCi/well) (PerkinElmer, Boston, Mass.) in PBS is then added to the cell culture for an additional 12 hours before the incorporated radioactivity is separated by filtration with water through GF/B filters (Packard Bioscience, Meridenj, Conn.) and measured by liquid scintillation counting with a TopCount (Packard Bioscience).

PI3K isoform δ = PI3K isoform δ (Homo sapiens (Human), UniProt O00329); experiment: Example A2: PI3K enzyme assay ([γ-33P]ATP filter plate), PI3Kδ; format: biochemical; conditions: as determined by Assay A2
Chain of PI3K isoform δ (O00329 whole entry, canonical isoform): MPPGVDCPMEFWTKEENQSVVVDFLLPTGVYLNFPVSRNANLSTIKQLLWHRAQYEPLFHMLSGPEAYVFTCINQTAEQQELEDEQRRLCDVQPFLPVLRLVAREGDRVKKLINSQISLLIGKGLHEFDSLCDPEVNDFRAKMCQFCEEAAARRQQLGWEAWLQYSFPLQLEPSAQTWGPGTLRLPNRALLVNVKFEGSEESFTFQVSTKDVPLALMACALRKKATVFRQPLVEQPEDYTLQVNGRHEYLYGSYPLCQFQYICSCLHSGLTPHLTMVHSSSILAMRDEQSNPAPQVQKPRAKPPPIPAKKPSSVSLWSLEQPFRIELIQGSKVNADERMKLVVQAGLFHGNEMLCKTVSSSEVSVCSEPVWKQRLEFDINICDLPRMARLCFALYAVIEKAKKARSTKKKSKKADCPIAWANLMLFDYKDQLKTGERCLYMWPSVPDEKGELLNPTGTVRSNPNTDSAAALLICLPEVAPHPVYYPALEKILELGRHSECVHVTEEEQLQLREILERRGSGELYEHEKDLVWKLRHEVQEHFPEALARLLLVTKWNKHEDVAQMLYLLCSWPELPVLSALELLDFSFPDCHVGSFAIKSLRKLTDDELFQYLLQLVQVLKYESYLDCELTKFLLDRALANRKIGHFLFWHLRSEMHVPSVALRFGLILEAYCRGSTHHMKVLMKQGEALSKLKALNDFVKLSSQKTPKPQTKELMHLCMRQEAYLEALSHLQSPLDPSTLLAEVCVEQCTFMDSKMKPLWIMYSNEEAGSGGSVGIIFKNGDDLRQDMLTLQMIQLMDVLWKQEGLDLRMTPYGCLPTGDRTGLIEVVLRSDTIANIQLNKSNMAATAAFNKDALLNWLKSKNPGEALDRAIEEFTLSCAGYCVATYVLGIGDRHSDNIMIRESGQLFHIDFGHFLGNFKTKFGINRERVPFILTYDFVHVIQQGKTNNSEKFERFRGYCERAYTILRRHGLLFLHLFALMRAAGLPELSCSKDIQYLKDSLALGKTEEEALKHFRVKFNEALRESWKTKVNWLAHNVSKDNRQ
Chain of PI3K isoform δ (P27986 whole entry partner, canonical isoform): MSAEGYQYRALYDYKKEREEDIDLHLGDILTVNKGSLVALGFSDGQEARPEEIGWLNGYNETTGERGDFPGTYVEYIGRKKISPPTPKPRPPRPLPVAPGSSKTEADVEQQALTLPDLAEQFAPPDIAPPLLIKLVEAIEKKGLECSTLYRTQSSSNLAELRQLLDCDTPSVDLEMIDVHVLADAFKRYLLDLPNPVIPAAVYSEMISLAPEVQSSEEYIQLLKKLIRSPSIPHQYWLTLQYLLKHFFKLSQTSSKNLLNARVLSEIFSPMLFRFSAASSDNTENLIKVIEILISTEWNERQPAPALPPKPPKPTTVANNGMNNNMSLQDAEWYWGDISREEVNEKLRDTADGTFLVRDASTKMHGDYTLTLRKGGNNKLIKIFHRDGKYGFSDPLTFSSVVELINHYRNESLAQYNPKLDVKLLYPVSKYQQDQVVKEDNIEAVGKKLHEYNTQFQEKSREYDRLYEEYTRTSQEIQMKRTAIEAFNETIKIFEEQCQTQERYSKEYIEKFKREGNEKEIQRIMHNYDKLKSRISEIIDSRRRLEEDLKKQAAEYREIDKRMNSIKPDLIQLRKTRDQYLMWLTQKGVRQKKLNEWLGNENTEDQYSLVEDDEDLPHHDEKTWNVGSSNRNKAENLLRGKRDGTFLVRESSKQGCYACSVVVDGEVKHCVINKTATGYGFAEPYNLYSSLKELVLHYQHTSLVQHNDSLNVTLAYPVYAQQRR
Procedure: PI3K isoforms α, β, δ and γ are purchased from Millipore (Bedford, Mass.).
Inhibitors are first diluted serially in DMSO and added to the plate wells before the addition of other reaction components. The final concentration of DMSO in the assay is 0.5%. The PI3K assays are carried out at room temperature in 20 mM MOPS, pH 6.7, 10 mM MgCl2, 5 mM DTT and CHAPS 0.03%. The reaction mixture is prepared containing 50 μM PIP2, kinase and varying concentration of inhibitors. Reactions are initiated by the addition of ATP containing 2.2 μCi [γ-^33P]ATP to a final concentration of 1000 μM. […] Reactions are incubated for 180 minutes and terminated by the addition of 100 μL of 1 M potassium phosphate pH 8.0, 30 mM EDTA quench buffer. A 100 μL aliquot of the reaction solution are then transferred to 96-well Millipore MultiScreen IP 0.45 μm PVDF filter plate (The filter plate is prewetted with 200 μL 100% ethanol, distilled water, and 1 M potassium phosphate pH 8.0, respectively). […] After drying by aspiration and blotting, the plate is air dried in an incubator at 37° C. overnight. Packard TopCount adapter (Millipore) is then attached to the plate followed with addition of 120 μL Microscint 20 scintillation cocktail (Perkin Elmer) in each well. After the plate sealing, the radioactivity of the product is determined by scintillation counting on Topcount (Perkin-Elmer). […]

Chain of PI3Kδ (p110δ/p85α) (O00329 whole entry): as the sequence (O00329 whole entry, canonical isoform) above
Chain of PI3Kδ (p110δ/p85α) (P27986 whole entry partner): as the sequence (P27986 whole entry partner, canonical isoform) above

Row | SMILES | IC50 (PI3Kδ (p110δ/p85α)) [nM] | IC50 [1] [nM] | IC50 (PI3K isoform δ) [nM]
1 | COc1c(C(C)n2nc(C)c3c(N)ncnc32)cc(Cl)c(C#N)c1C1CN(C)C1 (single isomer, unassigned) [Example 262, 4-[1-(4-Amino-3-methyl-1H-pyrazolo[3,4-d]pyrimidin-1-yl)ethyl]-6-chloro-3-methoxy-2-(1-methylazetidin-3-yl)benzonitrile] | < 10 | < 10 | –
2 | COc1c(C(C)n2nc(C)c3c(N)ncnc32)cc(Cl)c(C#N)c1C1CN(C[C@H](C)O)C1 (stereo partly drawn) [Example 269, 4-[1-(4-Amino-3-methyl-1H-pyrazolo[3,4-d]pyrimidin-1-yl)ethyl]-6-chloro-2-{1-[(2S)-2-hydroxypropyl]azetidin-3-yl}-3-methoxybenzonitrile] | < 10 | < 10 | –
3 | CCOc1c(C(C)n2nc(C)c3c(N)ncnc32)cc(Cl)c(C)c1C1CN(C[C@H](C)O)C1 (stereo partly drawn) [Example 96, (2S)-1-(3-{3-[1-(4-Amino-3-methyl-1H-pyrazolo[3,4-d]pyrimidin-1-yl)ethyl]-5-chloro-2-ethoxy-6-methylphenyl}azetidin-1-yl)propan-2-ol bis(trifluoroacetate)] | < 10 | < 10 | –
4 | CCOc1c(C(C)n2nc(C)c3c(N)ncnc32)cc(Cl)c(F)c1C1CN(C[C@@H](C)O)C1 (stereo partly drawn) [Example 142, (2R)-1-(3-{3-[1-(4-Amino-3-methyl-1H-pyrazolo[3,4-d]pyrimidin-1-yl)ethyl]-5-chloro-2-ethoxy-6-fluorophenyl}azetidin-1-yl)propan-2-ol] | < 10 | < 10 | –
5 | COc1c(C(C)n2nc(C)c3c(N)ncnc32)cc(C)c(C#N)c1C1CN(C[C@H](C)O)C1 (single isomer, unassigned) [Example 315] | < 10 | < 10 | –
6 | COc1c(C(C)n2nc(C)c3c(N)ncnc32)cc(Cl)c(C)c1C1CN(CC(C)O)C1 (stereo in doubt) [Example 102, (2S)-1-(3-{3-[1-(4-Amino-3-methyl-1H-pyrazolo[3,4-d]pyrimidin-1-yl)ethyl]-5-chloro-2-methoxy-6-methylphenyl}azetidin-1-yl)propan-2-ol] | < 10 | < 10 | –
7 | COc1c(C(C)n2nc(C)c3c(N)ncnc32)cc(Cl)c(C)c1C1CN([C@@H](C)CO)C1 (stereo partly drawn) [Example 157] | < 10 | 10 to 50 | –
8 | COc1c([C@@H](C)n2nc(C)c3c(N)ncnc32)cc(Cl)c(C#N)c1C1CN(C[C@H](C)O)C1 [Example 361, 4-((R)-1-(4-amino-3-methyl-1H-pyrazolo[3,4-d]pyrimidin-1-yl)ethyl)-6-chloro-2-(1-((S)-2-hydroxypropyl)azetidin-3-yl)-3-methoxybenzonitrile] | – | – | > 500
9 | CCOc1c(C(C)n2nc(C)c3c(N)ncnc32)cc(Cl)c(C#N)c1C1CN(C[C@H](C)O)C1 (stereo partly drawn) [Example 220, 4-[1-(4-Amino-3-methyl-1H-pyrazolo[3,4-d]pyrimidin-1-yl)ethyl]-6-chloro-3-ethoxy-2-{1-[(2S)-2-hydroxypropyl]azetidin-3-yl}benzonitrile] | < 10 | < 10 | –
10 | COc1c(C(C)n2nc(C)c3c(N)ncnc32)cc(Cl)c(C)c1C1CN(C(C)CF)C1 (stereo not drawn) [Example 114, 1-(1-{5-Chloro-3-[1-(2-fluoro-1-methylethyl)azetidin-3-yl]-2-methoxy-4-methylphenyl}ethyl)-3-methyl-1H-pyrazolo[3,4-d]pyrimidin-4-amine] | < 10 | < 10 | –
11 | CCOc1c(C(C)n2nc(C)c3c(N)ncnc32)cc(Cl)c(F)c1C1CNC(=O)O1 (single isomer, unassigned) [Example 357, 5-{3-[1-(4-amino-3-methyl-1H-pyrazolo[3,4-d]pyrimidin-1-yl)ethyl]-5-chloro-2-ethoxy-6-fluorophenyl}-1,3-oxazolidin-2-one] | < 10 | < 10 | –
